Reference: patent publication US8273730B2, “Use of estriol in low doses” (Italfarmaco, SA, priority 2007, dated 2012)

Tested on: vaginal atrophy in female ovariectomized Wistar Han rats
Assay: Assay I: assessment of the effect on vaginal atrophy (vaginal smears: cornified cells, maturation index, overall trophism)
Assay type: in vivo, rat
Settings: dose 10 times less than the usual dose; rats of both groups (cream and gel)
Procedure: In this study a total of 8 female ovariectomized Wistar Han rats were used, which were randomly distributed into 2 groups with 4 animals each. Group A was treated with Formulation 1 whereas Group B was treated with Formulation 2.
After 18 days had elapsed from the reception of the ovariectomized animals, several vaginal smears were periodically performed in each rat, until the menopausal condition (particularly vaginal atrophy) was verified in all the rats, determining the maturation index of the vaginal epithelium.
Once the treatment had started, Formulations 1 (0.005% estriol cream) and 2 (0.005% estriol gel) were administered to experimental Group A and B, respectively, once a day for 5 days. The administration was carried out by vaginal route, in an amount of 5.8 mg of formulation/animal (corresponding to 0.29 μg of estriol/animal), using a positive displacement multipipette equipped with a special tip. […]
The effect of the treatment with each of the formulations was assessed by means of the appearance of cornified cells, the determination of the maturation index of the vaginal epithelium and the evaluation of the overall trophism.

C[C@]12CC[C@@H]3c4ccc(O)cc4CC[C@H]3[C@@H]1C[C@@H](O)[C@@H]2O [estriol]
Effect on vaginal atrophy condition: reverses the vaginal atrophy condition
